Data as given in PubChem BioAssay AID608 (Sanford-Burnham Center for Chemical Genomics, 2007).
Calls of active or inactive are those of the source. No rule for the calls is given here.

target: Peptidyl-prolyl cis-trans isomerase FKBP1A (Homo sapiens) (UniProt P62942); assay: FKBP12 binders, biophysical, NMR detection (AID 608); conditions: NMR binding, purified FKBP12
Sequence (P62942 whole entry, looked up): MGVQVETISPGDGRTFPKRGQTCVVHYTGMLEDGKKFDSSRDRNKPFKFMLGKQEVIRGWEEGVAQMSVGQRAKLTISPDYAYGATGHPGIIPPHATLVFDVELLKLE

| SMILES | Kd |
| --- | --- |
| CC(=O)O[C@@H]1CC2C(C)(C)[C@H](O)CC[C@]2(C)C2CC[C@@]3(C)[C@H](c4ccoc4)OC(=O)C4OC43[C@@]21C (some centres undefined) | > 4 mM (inactive) |
| COC(=O)Nc1ccc2ncn(C)c(=O)c2c1 | > 4 mM (inactive) |
| C=C(C)C1Cc2c(ccc(C(=O)O)c2O)O1 (centres undefined) | > 4 mM (inactive) |
| COc1ccc(Cl)c(S(=O)(=O)N2CCCC2)c1 | > 4 mM (inactive) |
| CN(C)C(=O)c1ccc(-c2n[nH]c(=O)c3ccccc23)cc1 | > 4 mM (inactive) |
| Cn1[nH]c(C(F)(F)F)cc1=O | > 4 mM (inactive) |
| O=C(O)C1CSC(c2ccc(Cl)cc2)N1 (centres undefined) | > 4 mM (inactive) |
| [O-][n+]1c2ccccc2[n+]([O-])c2cc(O)ccc21 | > 4 mM (inactive) |
| CN1CCOc2cc(C(=O)O)ccc21 | > 4 mM (inactive) |
| CSCCNC(C)=O | > 4 mM (inactive) |
| NC(=O)CSc1nc2[nH]ncc2c(=O)[nH]1 | > 4 mM (inactive) |
| C[C@@H]1OC(O[C@H]2[C@H](OC(=O)[C@]34CCC(C)(C)CC3C3=CCC5[C@@]6(C)CC[C@H](OC7O[C@@H](C)[C@H](O[C@@H]8OC[C@@H](O)[C@H](O)[C@H]8O)[C@@H](O)[C@H]7O)C(C)(C)C6CC[C@@]5(C)[C@]3(C)CC4O)OC[C@H](O)[C@H]2O)[C@H](O)[C@H](O)[C@H]1O[C@@H]1O[C@H](CO)[C@@H](O)[C@H](O)[C@H]1O (some centres undefined) | > 4 mM (inactive) |
| CN1CCN(c2ccc(CN)cc2)CC1 | > 4 mM (inactive) |
| Cc1nc(-c2ccc(C(=O)N3CCOCC3)cc2)cs1 | > 4 mM (inactive) |
| NC(=O)CN1CC(=O)NC(=O)C1 | > 4 mM (inactive) |
| O=c1c2ccccc2nc2n1CCS2 | > 4 mM (inactive) |
| O=C1NC(=S)N/C1=C/c1ccsc1 | > 4 mM (inactive) |
| Cc1cccc(NC(=O)c2ccc(=O)[nH]n2)c1 | > 4 mM (inactive) |
| Nc1ccc(-c2cnco2)cc1 | > 4 mM (inactive) |
| C(=C\c1ccccc1)/C=N/n1cnnc1 | > 4 mM (inactive) |
| Cn1c(=O)cc(O)c2ccccc21 | > 4 mM (inactive) |
| Cc1occc1C(=O)Nc1cc(C(C)(C)C)on1 | > 4 mM (inactive) |
| Fc1cc2nccnc2cc1N1CCSCC1 | > 4 mM (inactive) |
| CN1CN(Cc2ccccc2)CN/C1=N/[N+](=O)[O-] | > 4 mM (inactive) |

| SMILES | Kd |
| --- | --- |
| Nc1ccc2[nH]ncc2c1 | > 4 mM (inactive) |
| CC(C)NC(=S)NCc1cnn(C)c1 | > 4 mM (inactive) |
| Cc1ccc(OCC(=O)N2CCOCC2)cc1C | inactive |
| CC(=O)Nc1ccc(-c2nc(C)c(C(C)=O)n2O)cc1 | > 4 mM (inactive) |
| NC(=O)c1ccc(C(N)=O)c(-c2ccccc2)c1 | > 4 mM (inactive) |
| c1ccc(Cc2nnc3sc(-c4ccncc4)nn23)cc1 | > 4 mM (inactive) |
| NCC(O)c1ccc(O)cc1 (centres undefined) | > 4 mM (inactive) |
| CC1(C)CC2C1CCC1(C)OC1CCC2(C)O (centres undefined) | > 4 mM (inactive) |
| CC1(C)CC2C1CCC1(C)OC2(C)CCC1O (centres undefined) | > 4 mM (inactive) |
| Cc1cc(O)c2c(c1O)C(=O)c1c(O)cc(C)c(O)c1C2=O | > 4 mM (inactive) |
| O=C(CC1CCCCC1)N1CCN(c2ccccn2)CC1 | > 4 mM (inactive) |
| COc1ccc(-c2coc3c(OC)c(OC)cc(OC)c3c2=O)cc1 | > 4 mM (inactive) |
| NC(=O)C1CCN(C(=O)c2ccccc2)CC1 | > 4 mM (inactive) |
| O=S(=O)(O)c1cc[n+]([O-])cc1 | > 4 mM (inactive) |
| CCOC(=O)c1ccc(NS(=O)(=O)N2CCOCC2)cc1 | inactive |
| Cc1ccc2cccc(OC(=O)N3CCCC3)c2n1 | > 4 mM (inactive) |
| O=C1CCCN1C(=O)CN1CCOCC1 | > 4 mM (inactive) |
| O=c1cc(-c2ccc(O)cc2)oc2cc(O)cc(O)c12 | > 4 mM (inactive) |
| Cc1ccc(S(=O)(=O)CC(N)=O)cc1 | > 4 mM (inactive) |
| NC(=O)CC(=O)NC12CC3CC(CC(C3)C1)C2 | > 4 mM (inactive) |
| COc1cc(OC)cc(-c2nc(N)n[nH]2)c1 | > 4 mM (inactive) |
| Cc1occc1C(=O)N1CCC2(CC1)OCCO2 | > 4 mM (inactive) |
| O=C(O)c1[nH]nc2c1COc1ccccc1-2 | > 4 mM (inactive) |
| O=C1CS/C(=N/N=C2CCCC2)N1 | > 4 mM (inactive) |

| SMILES | Kd |
| --- | --- |
| O=[N+]([O-])c1cccc(CN2CCC(O)CC2)c1 | > 4 mM (inactive) |
| O=C(O)c1csc(-c2cccnc2)n1 | > 4 mM (inactive) |
| COc1ccc(CC(=O)c2ccc(O)cc2O)cc1 | > 4 mM (inactive) |
| COC(=O)c1ccc2nc[nH]c2c1 | > 4 mM (inactive) |
| Nc1ccc(Cc2ccncc2)cc1 | > 4 mM (inactive) |
| CCOC(=O)C1CN(C)CCN1C (centres undefined) | > 4 mM (inactive) |
| C=CCSCC=C | > 4 mM (inactive) |
| Cc1cc(S(=O)(=O)N2CCCC2)ccc1OCC(=O)N1CCOCC1 | inactive |
| O=CN1CCN(C(=O)c2ccccc2Cl)CC1 | > 4 mM (inactive) |
| COc1ccc2c(c1OC)C(=O)O[C@H]2[C@H]1c2cc3c(cc2CCN1C)OCO3 | > 4 mM (inactive) |
| CC(C)c1c(O)c(-c2cc3c(c(C(C)C)c2O)CCC2C(C)(C)CCC[C@]32C)cc2c1CCC1C(C)(C)CCC[C@]21C (some centres undefined) | > 4 mM (inactive) |
| NC(=O)CSc1ccc(-c2ccco2)nn1 | > 4 mM (inactive) |
| Cc1oc(-c2ccccc2)cc1C(N)=O | > 4 mM (inactive) |
| CCCCN1C(=O)N(C)C2NC(=O)NC21 (centres undefined) | > 4 mM (inactive) |
| Cc1cc(NC(=O)CCCn2cnc([N+](=O)[O-])n2)no1 | > 4 mM (inactive) |
| CC1CN(C(=O)C(Sc2ccccc2)c2ccccc2)CC(C)O1 (centres undefined) | inactive |
| O=C(CCc1ccc(O)cc1)c1c(O)cc(O)cc1O | > 4 mM (inactive) |
| O=C(O)c1cc(O)c2c(c1)C(=O)c1cc(O)cc(O)c1C2=O | > 4 mM (inactive) |
| O=C(c1sc2cc(F)ccc2c1Cl)N1CCOCC1 | inactive |
| Cc1c(N=Cc2ccc[nH]2)c(=O)n(-c2ccccc2)n1C | > 4 mM (inactive) |
| Nc1nnc(Cc2ccc(Cl)cc2)s1 | > 4 mM (inactive) |
| O=C(O)c1ccc(-c2cnco2)cc1 | > 4 mM (inactive) |
| Cc1cc(=O)cc(C)n1-c1ccccc1N1CCOCC1 | > 4 mM (inactive) |
| Cc1c(C(=O)Nc2cnccn2)oc2ccccc12 | > 4 mM (inactive) |

| SMILES | Kd |
| --- | --- |
| Cc1cc(=O)[nH]c(N2CCN(Cc3ccccc3)CC2)n1 | > 4 mM (inactive) |
| COC(=O)c1cccc(Cn2nnc3ccccc3c2=O)c1 | > 4 mM (inactive) |
| O=c1cc(CO)oc(CN2CCCCC2)c1O | > 4 mM (inactive) |
| Cc1ccc(C(=O)N2CCOCC2)cc1Cl | > 4 mM (inactive) |
| O=S1(=O)CCC(NCCO)C1 (centres undefined) | > 4 mM (inactive) |
| c1ccc(Cc2nnc(-c3ccccc3)o2)cc1 | > 4 mM (inactive) |
| O=C(NCc1ccccn1)c1ccccc1Cl | > 4 mM (inactive) |
| CCc1ccc(C(=O)N2CCCC2)s1 | > 4 mM (inactive) |
| Cc1ccc2nc(SCCC#N)nc(C)c2c1 | > 4 mM (inactive) |
| CCCCN1C(=O)C2CC/C(=N/O)CC2C1=O (centres undefined) | > 4 mM (inactive) |
| COc1cccc(O)c1O | > 4 mM (inactive) |
| CC1CCc2cc(F)ccc2N1C(=O)c1ccc(=O)[nH]n1 (centres undefined) | > 4 mM (inactive) |
| c1ccc(-c2noc(-c3ccc4c(c3)OCO4)n2)nc1 | > 4 mM (inactive) |
| CN1C(=O)/C(=C/c2ccccc2O)NC1=S | > 4 mM (inactive) |
| Brc1ccc(-c2nc(-c3ccncc3)no2)o1 | > 4 mM (inactive) |
| Cc1nn2c(nc1=O)SCC(c1ccccc1)=N2 | > 4 mM (inactive) |
| CN(C)c1ccc(CNn2cnnc2)cc1 | > 4 mM (inactive) |
| O=C(O)CCCN1CNC(=S)NC1 | > 4 mM (inactive) |
| CSc1ncnc2nc[nH]c12 | > 4 mM (inactive) |
| COC(=O)c1cn(C(=O)OC)c2ccccc12 | > 4 mM (inactive) |
| O=C(O)Cn1c(=O)sc2ccccc21 | > 4 mM (inactive) |
| CC(Sc1ncn[nH]1)C(=O)O (centres undefined) | > 4 mM (inactive) |
| O=C(c1ccc(F)cc1)N1CCOCC1 | > 4 mM (inactive) |
| S=c1[nH]nc(-c2cccnc2)n1Cc1ccccc1 | > 4 mM (inactive) |

| SMILES | Kd |
| --- | --- |
| Nc1ccc(-n2cncn2)cc1 | > 4 mM (inactive) |
| COC(=O)C[C@@H]1C2(C)C(=O)[C@@H](CC3=C4C=C(OC)O[C@@H](c5ccoc5)[C@]4(C)CCC32)[C@H](O)C1(C)C (some centres undefined) | > 4 mM (inactive) |
| COc1ccc(/C=C2/N=C(N)SC2=O)cc1 | > 4 mM (inactive) |
| Cc1nn(CC(=O)Nc2ccccn2)c(=O)c2ccccc12 | > 4 mM (inactive) |
| COc1cccc(OC)c1C(=O)N1CCOCC1 | > 4 mM (inactive) |
| Cc1ccc(NS(=O)(=O)N2CCCCC2)c(C)c1 | 0.436 mM |
| Cc1nc2ccccc2c(=O)[nH]1 | > 4 mM (inactive) |
| CSc1nc(NC(C)(C)C)nc(N2CCOCC2)n1 | > 4 mM (inactive) |
| CC1(C)CC2(C)N(N)C(=O)CN2C(=S)N1 (centres undefined) | > 4 mM (inactive) |
| Cn1c(O)c(C2=NC(=S)NC2=O)c2ccccc21 | > 4 mM (inactive) |
| OC[C@H]1O[C@@H](Oc2ccc(O)cc2)[C@H](O)[C@@H](O)[C@@H]1O | > 4 mM (inactive) |
| COc1ccc(-c2noc(-c3ccco3)n2)cc1OC | > 4 mM (inactive) |
| O=C1COc2cc(O)ccc21 | > 4 mM (inactive) |
| CC(C)C(=O)NC(=S)N1CCOCC1 | > 4 mM (inactive) |
| O=C(Cc1cccs1)Nc1nncs1 | > 4 mM (inactive) |
| COc1nc(-c2ccccc2)ccc1-c1noc(C)n1 | > 4 mM (inactive) |
| CC(C)c1ccc2c(c1)CCC1C(C)(C(N)=O)CCCC21C (centres undefined) | > 4 mM (inactive) |
| COc1cccc(NC(=O)c2cnn(C)c2Cl)c1 | > 4 mM (inactive) |
| CC(=O)Oc1cc(-c2coc3cc(OC(C)=O)c(OC(C)=O)c(OC(C)=O)c3c2=O)cc(OC(C)=O)c1OC(C)=O | > 4 mM (inactive) |
| Cc1nnc(C)n1/N=C/c1cccs1 | > 4 mM (inactive) |
| O=C(Cn1cncn1)c1ccc(F)c(F)c1 | > 4 mM (inactive) |
| Nc1ccc(N2CCOCC2)c(Cl)c1 | > 4 mM (inactive) |
| CC(C)(C)c1cc(CN)c(C(=O)O)o1 | > 4 mM (inactive) |
